Among the data in patent US12338256B2, “Aza-tetracyclic oxazepine compounds and uses thereof” (Genentech, Inc., priority 2022, dated 2025) are IC50 values, retold here.

A value given as a limit tells only on which side of the number the result lay.

A word on the IC50: it is the concentration that inhibits the measured activity by half.

Common to all, as to format: cell-based
In assay [1] the test system is PC-9 (KRAS wild type human lung adenocarcinoma cell line). Description: KRAS 3D-Cell Proliferation Assay, PC-9 (Example 503). Conditions: 168 h, PC-9 3D culture, 7 days, CellTiter-Glo 3D, read-out: Prolif PC9 3D ATP IC50. Summed up: (§1)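 Luminescent ATP readout (CellTiter-Glo 3D, with mechanical mixing) measures growth of cells cultured in 3D after a 7-day compound exposure at 37° C. Percent inhibition is referenced to vehicle (DMSO) and 1 μM staurosporine controls, and IC50 comes from a four-parameter Hill fit.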
On the technique in general: ATP-based viability assays read luminescence as a measure of living cells.

The subject of assay [2] is HPAC (homozygous mutant KRAS G12D human pancreatic cell line). Description: KRAS 3D-Cell Proliferation Assay, HPAC (Example 503). Conditions: Homo sapiens, HPAC, 168 h, HPAC 3D culture, 7 days, CellTiter-Glo 3D; read-out: Prolif HPAC 3D ATP IC50. Summed up:
as §1

Assay [3] concerns H1975 (KRAS wild type human lung adenocarcinoma cell line). The assay can be described thus: KRAS 3D-Cell Proliferation Assay, H1975 (Example 503). Particulars: Homo sapiens, NCI-H1975, 168 h, H1975 3D culture, 7 days, CellTiter-Glo 3D; read-out: Prolif H1975 3D ATP IC50. Put shortly: as §1
In assay [4] the test system is AsPC-1 (homozygous mutant KRAS G12D human pancreatic cell line). The assay can be described thus: KRAS 3D-Cell Proliferation Assay, AsPC-1 (Example 503). Particulars: Homo sapiens, ASPC1, 168 h, AsPC-1 3D culture, 7 days, CellTiter-Glo 3D; read-out: Prolif AsPC-1 3D ATP IC50. Summed up: as §1

Turning to `C[C@@H]1Oc2nc(-c3c(C(F)(F)F)ccc(N)c3F)c(F)c3nc(OC[C@@]45CCCN4C[C@H](F)C5)nc(c23)N2C[C@H]3CC[C@H](N3)[C@@H]12` [Compound 35, 2-fluoro-3-((5S,5aS,6S,9R)-1-fluoro-12-(((2R,7aS)-2-fluorotetrahydro-1H-pyrrolizin-7a(5H)-yl)methoxy)-5-methyl-5a,6,7,8,9,10-hexahydro-5H-4-oxa-3,10a,11,13,14-pentaaza-6,9-methanonaphtho[1,8-ab]heptalen-2-yl)-4-(trifluoromethyl)aniline], the concentration for half-maximal inhibition (IC50) in assay [1] is 9170 nM; in assay [2], 7.4 nM; in assay [3], 5870 nM; in assay [4], 10.6 nM.
Consider `Cc1cc(N)c(F)c(-c2nc3c4c(nc(OC[C@@]56CCCN5C[C@H](F)C6)nc4c2F)N2C[C@H]4CC[C@H](N4)[C@H]2CO3)c1C(F)(F)F` [Compound 36, 2-fluoro-3-((5aS,6S,9R)-1-fluoro-12-(((2R,7aS)-2-fluorotetrahydro-1H-pyrrolizin-7a(5H)-yl)methoxy)-5a,6,7,8,9,10-hexahydro-5H-4-oxa-3,10a,11,13,14-pentaaza-6,9-methanonaphtho[1,8-ab]heptalen-2-yl)-5-methyl-4-(trifluoromethyl)aniline], for which the IC50 in assay [1] was found to be 6110 nM; in assay [2], 31.4 nM; in assay [3] it was 1130 nM; in assay [4] it was 52.4 nM.
`C[C@@H]1Oc2nc(-c3cncc4cccc(Cl)c34)c(F)c3nc(OC[C@@]45CCCN4C[C@H](F)C5)nc(c23)N2C[C@H]3CC[C@H](N3)[C@@H]12` [Compound 38, (5S,5aS,6S,9R)-2-(5-Chloroisoquinolin-4-yl)-1-fluoro-12-(((2R,7aS)-2-fluorotetrahydro-1H-pyrrolizin-7a(5H)-yl)methoxy)-5-methyl-5a,6,7,8,9,10-hexahydro-5H-4-oxa-3,10a,11,13,14-pentaaza-6,9-methanonaphtho[1,8-ab]heptalene]: the IC50 in assay [1] worked out at 7380 nM; in assay [2], 96.1 nM; in assay [3], 2830 nM; in assay [4], 270 nM.
With `C#Cc1cccc2cncc(-c3nc4c5c(nc(OC[C@@]67CCCN6C[C@H](F)C7)nc5c3F)N3C[C@H]5CC[C@H](N5)[C@H]3[C@H](C)O4)c12` [Compound 39, (5S,5aS,6S,9R)-2-(5-Ethynylisoquinolin-4-yl)-1-fluoro-12-(((2R,7aS)-2-fluorotetrahydro-1H-pyrrolizin-7a(5H)-yl)methoxy)-5-methyl-5a,6,7,8,9,10-hexahydro-5H-4-oxa-3,10a,11,13,14-pentaaza-6,9-methanonaphtho[1,8-ab]heptalene], the IC50 in assay [1] was not below 20000 nM; in assay [2], 35.8 nM; in assay [3], 3970 nM; in assay [4], 55.8 nM.
For `C#Cc1cccc2cncc(-c3nc4c5c(nc(OC[C@@]67CCCN6CC6(CC6(F)F)C7)nc5c3F)N3C[C@H]5CC[C@H](N5)[C@H]3[C@H](C)O4)c12` (stereo partly drawn) [Compound 40, (5S,5aS,6S,9R)-12-(((7a′S)-2,2-difluorodihydro-1′H,3′H-spiro[cyclopropane-1,2′-pyrrolizin]-7a′(5′H)-yl)methoxy)-2-(5-ethynylisoquinolin-4-yl)-1-fluoro-5-methyl-5a,6,7,8,9,10-hexahydro-5H-4-oxa-3,10a,11,13,14-pentaaza-6,9-methanonaphtho[1,8-ab]heptalene], the concentration for half-maximal inhibition (IC50) in assay [1] was determined as 15700 nM; in assay [2] it was 36 nM; in assay [3], 20000 nM; in assay [4], 27.7 nM.
Consider `Cc1cc(N)nc(-c2nc3c4c(nc(OC[C@@]56CCCN5C[C@H](F)C6)nc4c2F)N2C[C@H]4CC[C@H](N4)[C@H]2[C@H](C)O3)c1C(F)(F)F` [Compound 43, 6-((5S,5aS,6S,9R)-1-Fluoro-12-(((2R,7aS)-2-fluorotetrahydro-1H-pyrrolizin-7a(5H)-yl)methoxy)-5-methyl-5a,6,7,8,9,10-hexahydro-5H-4-oxa-3,10a,11,13,14-pentaaza-6,9-methanonaphtho[1,8-ab]heptalen-2-yl)-4-methyl-5-(trifluoromethyl)pyridin-2-amine], for which the IC50 in assay [1] was not below 20000 nM; in assay [2], 16.8 nM; in assay [3] it was 4290 nM; in assay [4], 43.4 nM.
Turning to `Cc1cc(N)nc(-c2nc3c4c(nc(OC[C@@]56CCCN5CC5(CC5(F)F)C6)nc4c2F)N2C[C@H]4CC[C@H](N4)[C@H]2[C@H](C)O3)c1C(F)(F)F` (stereo partly drawn) [Compound 47, 6-((5S,5aS,6S,9R)-12-(((7a′S)-2,2-difluorodihydro-1′H,3′H-spiro[cyclopropane-1,2′-pyrrolizin]-7a′(5′H)-yl)methoxy)-1-fluoro-5-methyl-5a,6,7,8,9,10-hexahydro-5H-4-oxa-3,10a,11,13,14-pentaaza[6,9]methanonaphtho[1,8-ab]heptalen-2-yl)-4-methyl-5-(trifluoromethyl)pyridin-2-amine], the IC50 in assay [1] is 8840 nM; in assay [2] it was 2.95 nM; in assay [3] it was 1530 nM; in assay [4], 3.97 nM.
For `C=C1CN2CCC[C@@]2(COc2nc3c4c(nc(-c5nc(N)cc(C)c5C(F)(F)F)c(F)c4n2)O[C@@H](C)[C@@H]2[C@@H]4CC[C@H](CN32)N4)C1` [Compound 48, 6-((5S,5aS,6S,9R)-1-fluoro-5-methyl-12-(((S)-2-methylenetetrahydro-1H-pyrrolizin-7a(5H)-yl)methoxy)-5a,6,7,8,9,10-hexahydro-5H-4-oxa-3,10a,11,13,14-pentaaza-6,9-methanonaphtho[1,8-ab]heptalen-2-yl)-4-methyl-5-(trifluoromethyl)pyridin-2-amine], in that order: not below 20000 nM, 5.52 nM, 5760 nM and 8.24 nM.
Take `C#Cc1cccc2cc(O)cc(-c3nc4c5c(nc(OC[C@@]67CCCN6C[C@H](F)C7)nc5c3F)N3C[C@H]5CC[C@H](CN5CCCF)[C@H]3CO4)c12` [Compound 50, 5-Ethynyl-4-((5aS,6R,9R)-1-fluoro-14-(3-fluoropropyl)-12-(((2R,7aS)-2-fluorotetrahydro-1H-pyrrolizin-7a(5H)-yl)methoxy)-5a,6,7,8,9,10-hexahydro-5H-4-oxa-3,10a,11,13,14-pentaaza-6,9-ethanonaphtho[1,8-ab]heptalen-2-yl)naphthalen-2-ol]: the 50% inhibitory concentration (IC50) turned out to be 4910 nM in assay [1], 25.8 nM in assay [2], 455 nM in assay [3] and 13 nM in assay [4].
For `C#Cc1cccc2cc(O)cc(-c3nc4c5c(nc(OC[C@@]67CCCN6C[C@H](F)C7)nc5c3F)N3C[C@H]5CC[C@H](CN5CC5COC5)[C@H]3CO4)c12` [Compound 51, 5-ethynyl-4-((5aS,6R,9R)-1-fluoro-12-(((2R,7aS)-2-fluorotetrahydro-1H-pyrrolizin-7a(5H)-yl)methoxy)-14-(oxetan-3-ylmethyl)-5a,6,7,8,9,10-hexahydro-5H-4-oxa-3,10a,11,13,14-pentaaza-6,9-ethanonaphtho[1,8-ab]heptalen-2-yl)naphthalen-2-ol], in that order: 19500 nM, 73 nM, 1820 nM and 51.2 nM.
For `C#Cc1cccc2cc(O)cc(-c3nc4c5c(ncnc5c3F)N3C[C@H]5CC[C@H](N5)[C@H]3[C@H](C)O4)c12` [Compound 54, 5-ethynyl-4-((5S,5aS,6S,9R)-1-fluoro-5-methyl-5a,6,7,8,9,10-hexahydro-5H-4-oxa-3,10a,11,13,14-pentaaza-6,9-methanonaphtho[1,8-ab]heptalen-2-yl)naphthalen-2-ol] the same measures were not below 20000 nM, 3420 nM, 20000 nM and 2090 nM.
